In brackets after ≈: the same amount, converted by molar mass. Read-outs that look alike come from different tables or passages of the source. Non-standard residues stand in square brackets, D forms with d. Residues, ends and D or L forms follow the SMILES beside them. *: point of attachment. Pentanoyl(5-NH-cholesteryl) = CC(C)CCC[C@@H](C)[C@H]1CC[C@H]2[C@@H]3CC=C4C[C@@H](NCCCCC(=O)*)CC[C@]4(C)[C@H]3CC[C@]12C; Cholesteryloxycarbonyl = CC(C)CCC[C@@H](C)[C@H]1CC[C@H]2[C@@H]3CC=C4C[C@@H](OC(=O)*)CC[C@]4(C)[C@H]3CC[C@]12C; PEG3 = NCCOCCOCCOCCC(=O)O; Pra = C#CC[C@H](N)C(=O)O; Aib = CC(C)(N)C(=O)O; Ahx = NCCCCCC(=O)O; βAla = NCCC(=O)O
Experiments:
[1] = test system: endosomes of Jurkat lymphocytes; experiment: Endosome disruption in Jurkat lymphocytes: release of carboxyfluorescein from disulfide probe Compound 2, flow cytometry; conditions: for Efficacy (% of max. 1): % change in cellular fluorescence relative to maximal response of Compound 1 (100%); for Efficacy (% of max. 1) / Efficacy (% of 1): Jurkat; for Efficacy (% of 1): % of the effect of compound 1, calculated span of dose-response curve, ± standard deviation
In short: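 Human Jurkat cells treated with compounds plus disulfide probe Compound 2 (2.5 μM) for 14 h at 37 °C. Cytoplasmic release of pH-sensitive fluorophore Compound 3 quantified by flow cytometry. IC50 by non-linear regression; efficacy as % fluorescence change relative to Compound 1 maximum (100%).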

[2] = Thermodynamic solubility in PBS (pH 7.4); format: physicochemical; conditions: for solubility thermodynamic at 24 h: phosphate buffered saline
Text: Values in parentheses represent 95% confidence intervals. N.D., not determined.
Measurements represent duplicate or more replicates, with active peptides subjected to multiple replicates. ND: not determined. The peptide was non-toxic and soluble in cell culture medium at this concentration.

Jurkat lymphocytes = test system: Jurkat lymphocytes
Method: The effects of the compounds of the invention on human Juikat leukemia cells were evaluated using flow cytometry-based assays of potency, efficacy, and toxicity. […] Analysis of flow cytometry data by non-linear regression was used to determine IC50 values for potency with the efficacy expressed as a percentage. […] Dose-dependent effects on cellular viability after 48 h at 37° C. in culture were also measured by flow cytometry.
The # represents the compound number in accordance with Tables A, B, and C. Concentrations of compound stock solutions were determined by absorbance measurements at 280 nm. Efficacy was determined as % change in cellular fluorescence relative to the maximal response of Compound 1, defined as 100%. Potencies and efficacies in Jurkat lymphocytes were measured by flow cytometry after treatment of cells with the compounds listed and the fluorescent probe Compound 2 (2.5 μM) for 14 hours. Toxicity to this cell line was determined by flow cytometry analysis of light scattering and counterstaining with PI after treatment for 48 h at 37° C. in culture. […] N.D., not determined.

[3] = read-out: Potency (EC50), Table 1, Jurkat lymphocytes, probe Compound 2 (2.5 μM), 14 hours, 95% confidence interval in neighbouring cell
[4] = read-out: Potency, Table 2, EC50 ± standard deviation, Jurkat lymphocytes, disulfide-linked fluorescent probe (2.5 μM), 14 h
[5] = pH 7.4, Table 1, PBS pH 7.4, 24 hours at 22° C., ±S.D., read-out: Solubility (aq.)
[6] = pH 7.4, Table 3, PBS pH 7.4, 24 h at 22° C., read-out: Solubility
[7] = read-out: Toxicity, Table 3, IC50, Jurkat, 48 h at 37° C., footnote a: non-toxic and soluble in cell culture medium at this concentration

| SMILES | Efficacy (% of 1) ([1]; Table 2, 14 h) [%] | EC50 [1, 4] [nM] | solubility thermodynamic at 24 h [2, 5] [µM] | solubility thermodynamic at 24 h [2, 6] [µM] | IC50 (Jurkat lymphocytes; [7]) [µM] | EC50 ([1]; 14 h) [nM] | IC50 (Jurkat lymphocytes; 48 h) [µM] | other results |
| --- | --- | --- | --- | --- | --- | --- | --- | --- |
| CC(C)[C@H](NC(=O)[C@@H](NC(=O)[C@@H]1CCCN1C(=O)[C@@H]1CCCN1C(=O)[C@H](Cc1c[nH]c2ccccc12)NC(=O)[C@H](Cc1ccc(O)cc1)NC(=O)[C@H](C)NC(=O)[C@H](Cc1c[nH]c2ccccc12)NC(=O)[C@H](Cc1c[nH]c2ccccc12)NC(=O)C(C)(C)NC(=O)C(C)(C)NC(=O)C(C)(C)NC(=O)C(C)(C)N)C(C)C)C(N)=O [Compound 44] (H-[Aib][Aib][Aib][Aib]WWAYWPPVV-NH2) | 98 ± 2 | 5000 ± 1000 | 22 ± 1 (≈ 33.9 µg/mL) | 22 ± 1 (≈ 33.9 µg/mL) | > 16 |  |  | Efficacy (% of max. 1) ([1]; Table 1, 14 hours): 97%; EC50 [1, 3]: 5200 nM |
| CC(=O)NC(C)(C)C(=O)NC(C)(C)C(=O)NC(C)(C)C(=O)NC(C)(C)C(=O)N[C@@H](Cc1c[nH]c2ccccc12)C(=O)N[C@@H](Cc1c[nH]c2ccccc12)C(=O)N[C@@H](C)C(=O)N[C@@H](Cc1c[nH]c2ccccc12)C(=O)N[C@@H](Cc1ccc(O)cc1)C(=O)N1CCC[C@H]1C(=O)N1CCC[C@H]1C(=O)N[C@H](C(=O)N[C@H](C(N)=O)C(C)C)C(C)C [Compound 78] (Ac-[Aib][Aib][Aib][Aib]WWAWYPPVV-NH2) | 70 ± 2 | 2300 ± 300 |  | 5 ± 1 (≈ 7.92 µg/mL) | > 16 |  |  |  |
| CC(C)CCC[C@@H](C)[C@H]1CC[C@H]2[C@@H]3CC=C4C[C@@H](NCCCCC(=O)NCCC(=O)N[C@@H](CCC(=O)O)C(=O)N[C@@H](CCC(=O)O)C(=O)NCCOCCOCCOCCC(=O)NCCOCCOCCOCCC(=O)NC(C)(C)C(=O)NC(C)(C)C(=O)NC(C)(C)C(=O)NC(C)(C)C(=O)N[C@@H](Cc5ccc(O)cc5)C(=O)N[C@@H](Cc5ccc(O)cc5)C(=O)N[C@@H](Cc5ccc(O)cc5)C(=O)N[C@@H](Cc5ccc(O)cc5)C(=O)N[C@@H](Cc5ccc(O)cc5)C(=O)N5CCC[C@H]5C(=O)N5CCC[C@H]5C(=O)N[C@H](C(=O)N[C@H](C(N)=O)C(C)C)C(C)C)CC[C@]4(C)[C@H]3CC[C@]12C [Compound 29, R = BEEOOUUUUYYYYYPPVV-CONH2] ({Pentanoyl(5-NH-cholesteryl)-βAla}-EE[PEG3][PEG3][Aib][Aib][Aib][Aib]YYYYYPPVV-NH2) |  |  | 90 ± 2 (≈ 249 µg/mL) |  |  | 80 | 3 |  |
| C#CC[C@H](NC(=O)[C@H](CCC(=O)O)NC(=O)[C@H](CCC(=O)O)NC(=O)CCNC(=O)CCNC(=O)O[C@H]1CC[C@@]2(C)C(=CC[C@H]3[C@@H]4CC[C@H]([C@H](C)CCCC(C)C)[C@@]4(C)CC[C@@H]32)C1)C(=O)NCCOCCOCCOCCC(=O)NCCOCCOCCOCCC(=O)NC(C)(C)C(=O)NC(C)(C)C(=O)NC(C)(C)C(=O)NC(C)(C)C(=O)N[C@@H](Cc1c[nH]c2ccccc12)C(=O)N[C@@H](Cc1c[nH]c2ccccc12)C(=O)N[C@@H](C)C(=O)N[C@@H](Cc1ccc(O)cc1)C(=O)N[C@@H](Cc1c[nH]c2ccccc12)C(=O)N1CCC[C@H]1C(=O)N1CCC[C@H]1C(=O)N[C@H](C(=O)N[C@H](C(N)=O)C(C)C)C(C)C [Compound 36, R″ = BEEZOOUUUUWWAYWPPVV-CONH2] ({Cholesteryloxycarbonyl-βAla-βAla}-EE[Pra][PEG3][PEG3][Aib][Aib][Aib][Aib]WWAYWPPVV-NH2) |  |  | 233 ± 21 (≈ 666 µg/mL) |  |  | 60 | 13 |  |
| CC(=O)NC(C)(C)C(=O)NC(C)(C)C(=O)NC(C)(C)C(=O)N[C@@H](Cc1c[nH]c2ccccc12)C(=O)N[C@@H](Cc1c[nH]c2ccccc12)C(=O)N[C@@H](C)C(=O)N[C@@H](Cc1ccc(O)cc1)C(=O)N[C@@H](Cc1c[nH]c2ccccc12)C(=O)N1CCC[C@H]1C(=O)N1CCC[C@H]1C(=O)N[C@H](C(=O)N[C@@H](C)C(N)=O)C(C)C [Compound 41] (Ac-[Aib][Aib][Aib]WWAYWPPVA-NH2) |  |  | 24 ± 3 (≈ 35.3 µg/mL) |  |  |  |  | Endosome disruption activity (in words) ([1]; Jurkat endosome disruption assay): substantial endosome disruption activity; Efficacy (% of max. 1) ([1]; Table 1, 14 hours): 53%; EC50 [1, 3]: 5900 nM; IC50 (Jurkat lymphocytes; read-out: Toxicity (IC50), Table 1, Jurkat lymphocytes, 48 h at 37° C.): > 100 µM |
| C#CC[C@H](NC(=O)[C@H](CCC(=O)O)NC(=O)[C@H](CCC(=O)O)NC(=O)CCNC(=O)CCNC(=O)O[C@H]1CC[C@@]2(C)C(=CC[C@H]3[C@@H]4CC[C@H]([C@H](C)CCCC(C)C)[C@@]4(C)CC[C@@H]32)C1)C(=O)NCCOCCOCCOCCC(=O)NCCOCCOCCOCCC(=O)NC(C)(C)C(=O)NC(C)(C)C(=O)NC(C)(C)C(=O)NC(C)(C)C(=O)N[C@@H](Cc1c[nH]c2ccccc12)C(=O)N[C@@H](Cc1c[nH]c2ccccc12)C(=O)N[C@@H](C)C(=O)N[C@@H](Cc1ccc(O)cc1)C(=O)N[C@@H](Cc1ccc(O)cc1)C(=O)N1CCC[C@H]1C(=O)N1CCC[C@H]1C(=O)N[C@H](C(=O)N[C@H](C(N)=O)C(C)C)C(C)C [Compound 37, R″ = BEEZOOUUUUWWAYYPPVV-CONH2] ({Cholesteryloxycarbonyl-βAla-βAla}-EE[Pra][PEG3][PEG3][Aib][Aib][Aib][Aib]WWAYYPPVV-NH2) |  |  | 348 ± 13 (≈ 986 µg/mL) |  |  | 40 | 3 | IC50 ([1]; 14 h): 40 nM |
| CC(C)CCC[C@@H](C)[C@H]1CC[C@H]2[C@@H]3CC=C4C[C@@H](NCCCCC(=O)NCCC(=O)N[C@@H](CCC(=O)O)C(=O)N[C@@H](CCC(=O)O)C(=O)NCCCCCC(=O)NC(C)(C)C(=O)NC(C)(C)C(=O)NC(C)(C)C(=O)N[C@@H](Cc5c[nH]c6ccccc56)C(=O)N[C@@H](Cc5c[nH]c6ccccc56)C(=O)N[C@@H](C)C(=O)N[C@@H](Cc5ccc(O)cc5)C(=O)N[C@@H](Cc5c[nH]c6ccccc56)C(=O)N5CCC[C@H]5C(=O)N5CCC[C@H]5C(=O)N[C@H](C(=O)N[C@@H](C)C(N)=O)C(C)C)CC[C@]4(C)[C@H]3CC[C@]12C [Compound 9, R = BEEXUUUWWAYWPPVA-CONH2] ({Pentanoyl(5-NH-cholesteryl)-βAla}-EE[Ahx][Aib][Aib][Aib]WWAYWPPVA-NH2) |  |  | 12 ± 1 (≈ 28.1 µg/mL) |  |  | 400 | 11 |  |
| C#CC[C@H](NC(=O)[C@H](CCC(=O)O)NC(=O)[C@H](CCC(=O)O)NC(=O)CCNC(=O)CCCCN[C@H]1CC[C@@]2(C)C(=CC[C@H]3[C@@H]4CC[C@H]([C@H](C)CCCC(C)C)[C@@]4(C)CC[C@@H]32)C1)C(=O)NCCOCCOCCOCCC(=O)NCCOCCOCCOCCC(=O)NC(C)(C)C(=O)NC(C)(C)C(=O)NC(C)(C)C(=O)NC(C)(C)C(=O)N[C@@H](Cc1c[nH]c2ccccc12)C(=O)N[C@@H](Cc1c[nH]c2ccccc12)C(=O)N[C@@H](C)C(=O)N[C@@H](Cc1ccc(O)cc1)C(=O)N[C@@H](Cc1c[nH]c2ccccc12)C(=O)N1CCC[C@H]1C(=O)N1CCC[C@H]1C(=O)N[C@H](C(=O)N[C@@H](C)C(N)=O)C(C)C [Compound 31, R = BEEZOOUUUUWWAYWPPVA-CONH2] ({Pentanoyl(5-NH-cholesteryl)-βAla}-EE[Pra][PEG3][PEG3][Aib][Aib][Aib][Aib]WWAYWPPVA-NH2) |  |  | < 5 |  |  | 80 | 4 | Solubility (aq., μM) ([2]; Table 1, PBS pH 7.4, 24 hours at 22° C., ±S.D.): 5 ± 1 µM (≈ 14.1 µg/mL) |
| CC(C)[C@H](NC(=O)[C@@H](NC(=O)[C@@H]1CCCN1C(=O)[C@@H]1CCCN1C(=O)[C@H](Cc1ccc(O)cc1)NC(=O)[C@H](Cc1c[nH]c2ccccc12)NC(=O)[C@H](C)NC(=O)[C@H](Cc1c[nH]c2ccccc12)NC(=O)[C@H](Cc1c[nH]c2ccccc12)NC(=O)[C@H](C)NC(=O)[C@H](Cc1c[nH]c2ccccc12)NC(=O)[C@H](Cc1c[nH]c2ccccc12)NC(=O)C(C)(C)NC(=O)C(C)(C)NC(=O)C(C)(C)NC(=O)C(C)(C)N)C(C)C)C(N)=O [Compound 79] (H-[Aib][Aib][Aib][Aib]WWAWWAWYPPVV-NH2) | 86 ± 5 | 220 ± 60 |  | 2 ± 1 (≈ 3.97 µg/mL) | > 16 |  |  |  |
| CC(C)[C@H](NC(=O)[C@@H](NC(=O)[C@@H]1CCCN1C(=O)[C@@H]1CCCN1C(=O)[C@H](Cc1ccc(O)cc1)NC(=O)[C@H](Cc1c[nH]c2ccccc12)NC(=O)[C@H](C)NC(=O)[C@H](Cc1ccc(O)cc1)NC(=O)[C@H](Cc1c[nH]c2ccccc12)NC(=O)[C@H](C)NC(=O)[C@H](Cc1ccc(O)cc1)NC(=O)[C@H](Cc1c[nH]c2ccccc12)NC(=O)C(C)(C)NC(=O)C(C)(C)NC(=O)C(C)(C)NC(=O)C(C)(C)N)C(C)C)C(N)=O [Compound 80] (H-[Aib][Aib][Aib][Aib]WYAWYAWYPPVV-NH2) | 113 ± 4 | 280 ± 100 |  | 5 ± 2 (≈ 9.7 µg/mL) | > 16 |  |  |  |

From patent publication US10766928B2, “Targeted conformationally-constrained kinked endosomal disrupting peptides” (priority 2012, dated 2020)
